Measured values: patent publication US20050130903A1, “Therapeutic agents and methods of use thereof for the modulation of angiogenesis” (priority 2000, published 2005)
Like-named read-outs stand apart in the source and are kept apart here. Square brackets hold non-standard residues; d marks the D form. Peptide text beside a SMILES is read from it. * marks the point of attachment. ξ: configuration not given here. X1 = CO[C@H]1C([C@@]2(C)O[C@@H]2CC=C(C)C)[C@]2(CC[C@H]1OC(=O)N[C@@H](CO*)C(C)C)CO2; X2 = CO[C@@H]1[C@H](OC(=O)*)CC[C@]2(CO2)[C@H]1[C@@]1(C)O[C@@H]1CC=C(C)C; X3 = CO[C@@H]1[C@H](OC(=O)*)CC[C@]2(CO2)[C@H]1[C@@]1(C)O[C@@H]1CCC(C)C; ξP = O=C(O)C1CCCN1

Columns and labels:
[1] = system: human umbilical vein endothelial cells (HUVEC); assay: human endothelial cell growth assay (Huvec assay); format: cell-based
Experimental: For the human endothelial cell growth assay, human umbilical vein endothelial cells (HUVEC) were maintained in Clonetics endothelial growth medium (EGM) in a 37° C. humidified incubator. Cells were detached with trypsin and pelleted by centrifugation at 300×g for 5 minutes at room temperature. HUVEC were added to 96-well plates at 5,000 cells/well. After incubating for 6 hours, the medium was replaced with 0.2 ml fresh EGM supplemented with 0.5 nM bFGF and the desired concentration of test angiogenesis inhibitor compound. Test angiogenesis inhibitor compounds were initially dissolved in ethanol at stock concentrations of either 10 mM or 0.1 mM, and subsequently diluted in EGM to obtain concentrations from […] to 10 μM. After 48 hours at 37° C., the medium was replaced with fresh bFGF-supplemented EGM and test angiogenesis inhibitor compound. Following incubation for an additional 48 hours at 37° C. MTT (3-[4,5-dimethylthiazol-2-yl]-2,5-diphenyl-tetrazolium bromide) was added to 1 mg/ml. After 2-4 hours at 37° C. the medium was replaced with 0.1 ml/well isopropanol. The plates were placed on a shaker for 15 minutes at room temperature and analyzed in a Labsystems Multiskan plate spectrophotometer at an optical density of 570 nm.

MetAP2 = molecular target: T1, MetAP2 (Homo sapiens, UniProt P50579); assay: MetAP2 enzyme assay; format: biochemical
T1 construct: made in house; host or cells: insect cells
T1 sequence (P50579 whole entry): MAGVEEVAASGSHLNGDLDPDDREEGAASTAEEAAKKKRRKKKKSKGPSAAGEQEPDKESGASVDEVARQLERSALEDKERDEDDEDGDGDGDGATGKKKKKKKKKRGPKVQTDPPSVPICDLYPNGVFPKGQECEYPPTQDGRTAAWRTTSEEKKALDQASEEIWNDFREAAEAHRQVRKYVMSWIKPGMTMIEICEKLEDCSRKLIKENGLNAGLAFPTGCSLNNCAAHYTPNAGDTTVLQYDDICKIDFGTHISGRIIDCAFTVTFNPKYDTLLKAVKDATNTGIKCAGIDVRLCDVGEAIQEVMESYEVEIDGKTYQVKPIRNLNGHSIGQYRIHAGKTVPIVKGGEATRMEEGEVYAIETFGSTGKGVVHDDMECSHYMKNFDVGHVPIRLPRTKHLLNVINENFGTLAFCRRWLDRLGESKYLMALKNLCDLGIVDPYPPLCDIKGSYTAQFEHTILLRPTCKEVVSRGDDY
Experimental: Finally, the ability of the angiogenesis inhibitor compounds of the invention to modulate the activity of MetAP2 may be tested as follows. Recombinant human MetAP2 may be expressed and purified from insect cells as described in Li and Chang, (1996) Biochem. Biophys. Res. Commun. 227:152-159. Various amounts of angiogenesis inhibitor compound is then added to buffer H (10 mM Hepes, pH 7.35, 100 mM KCl, 10% glycerol, and […]) containing 1 nM purified recombinant human MetAP2 and incubated at 37° C. for 30 minutes. To start the enzymatic reaction a peptide containing a methionine residue, e.g., Met-Gly-Met, is added to the reaction mixture (to a concentration of 1 mM). Released methionine is subsequently quantified at different time points (e.g., at 0, 2, 3, and 5 minutes) using the method of Zou et al. (1995) Mol. Gen Genetics 246:247-253).
(§1) The angiogenesis inhibitor compounds of the invention were tested for their ability to modulate human endothelial cell growth and for their ability to modulate the activity of MetAP2. The MetAP2 enzyme assay was performed essentially as described in Turk, B. et al. (1999) Chem. & Bio. 6: 823-833, the entire contents of which are incorporated herein by reference. The bovine aortic endothelial cell growth assay (Baec assay) was performed essentially as described in Turk, B. et al. (supra), the entire contents of which are incorporated herein by reference.

[2] = system: bovine aortic endothelial cell; assay: bovine aortic endothelial cell growth assay (Baec assay); format: cell-based
Experimental: as §1

[3] = stability in liver microsomes; format: in vitro ADME, rat; details: NADPH regenerating system
Experimental: The stability of the angiogenesis inhibitor compounds in liver microsomes was also tested. The test angiogenesis inhibitor compound at a concentration of 3 μM was incubated with male rat liver microsomes (0.5 mg/mL protein) in the presence of a NADPH regenerating system (1 mM NADP, 10 mM G6P, 1 U/mL G6PdH2, 3 mM MgCl2 ) in 100 mM Phosphate buffer at pH 7.4 at 37° C. Incubations were performed in the presence and absence of 1 μM epoxide hydrolase (EH) inhibitor N-cyclohexyl-N′-(3-phenylpropyl)urea (M. Morisseau et al. (1999) PNAS 96:8849-54) and quantitative analysis performed using LC/MS/MS.
(§2) The parent compound remaining (relative to time 0) in the incubation mixture was plotted as a function of time; a first order exponential equation was fit to the observed data, and the elimination half-lives associated with the disappearance of the test compound were determined.

[4] = plasma stability in human plasma; format: in vitro ADME; details: human plasma, 37° C., 20 μM
Experimental: The plasma stability of the angiogenesis inhibitor compounds of the invention was also tested in human plasma at 37° C. (at a 20 μM concentration of the angiogenesis inhibitor compound). The matrix minus the test angiogenesis inhibitor compound was equilibrated at 37° C. for 3 minutes. The assay was initiated by addition of the test compound, and the reaction mixture was incubated in a shaking water bath at 37° C. […] The supernatant was analysed by Liquid Chromatography/Mass spectrometry (LC/MS) using a four point standard curve to obtain percent recovery.
as §2, with “test angiogenesis inhibitor” for “test”

[5] = Homo sapiens, HUVEC, bFGF-supplemented EGM, MTT

COC(=O)[C@@H](CC(C)C)NC(=O)O[C@@H]1CC[C@]2(CO2)[C@@H]([C@@]2(C)O[C@@H]2CC=C(C)C)[C@@H]1OC [Example 3, 2-{(3R,4S,5S,6R)-5-Methoxy-4-[(2R,3R)-2-methyl-3-(3-methyl-but-2-enyl)-oxiranyl]-1-oxa-spiro[2.5]oct-6-yloxycarbonylamino}-4-methyl-pentanoic acid methyl ester]
IC50 [1, 5]: 0.038 nM
IC50 (MetAP2; read-out: MetAP2 Assay IC50): 5.5 nM
IC50 ([2]; Bos taurus, BAEC): 0.118 nM

COc1ccc(C[C@H](NC(=O)[C@H](CC(=O)O)NC(=O)CNC(=O)[C@H](CCCNC(=N)N)NC(=O)CNC(=O)O[C@@H]2CC[C@]3(CO3)[C@@H]([C@@]3(C)O[C@@H]3CCC(C)C)[C@@H]2OC)C(=O)N[C@@H](CCCNC(=N)N)C(=O)N[C@@H](CCC(=O)O)C(N)=O)cc1 [Example 14] (X3-GRGDY(Me)RE-NH2)
IC50 [1]: > 10000 nM
IC50 (MetAP2): 4000 nM

CO[C@@H]1[C@H](OC(=O)NC(=O)CCl)CC[C@]2(CO2)[C@H]1[C@@]1(C)O[C@@H]1CC=C(C)C [TNP-470, reference compound]
T1/2 (with EH inhibitor) ([3]; male rat liver microsomes 0.5 mg/mL, 3 μM, with 1 μM EH inhibitor): >1.0 min
half-life at 3 μM ([3]; pH 7.4, male rat liver microsomes 0.5 mg/mL, without EH inhibitor, read-out: T1/2 (without EH inhibitor)): > 1 min

COC(=O)[C@H](NC(=O)O[C@@H]1CC[C@]2(CO2)[C@@H]([C@@]2(C)O[C@@H]2CC=C(C)C)[C@@H]1OC)c1ccccc1 [Example 4, {(3R,4S,5S,6R)-5-Methoxy-4-[(2R,3R)-2-methyl-3-(3-methyl-but-2-enyl)-oxiranyl]-1-oxa-spiro[2.5]oct-6-yloxycarbonylamino}-phenyl-acetic acid methyl ester]
IC50 (MetAP2; read-out: MetAP2 Assay IC50): 2.7 nM

COC(=O)[C@H](NC(=O)O[C@@H]1CC[C@]2(CO2)[C@@H]([C@@]2(C)O[C@@H]2CC=C(C)C)[C@@H]1OC)C(C)C [Example 2, 2-{(3R,4S,5S,6R)-5-Methoxy-4-[(2R,3R)-2-methyl-3-(3-methyl-but-2-enyl)-oxiranyl]-1-oxa-spiro[2.5]oct-6-yloxycarbonylamino}-3-methyl-butyric acid methyl ester]
IC50 [1, 5]: 0.04 nM
IC50 (MetAP2; read-out: MetAP2 Assay IC50): 2 nM
IC50 ([2]; Bos taurus, BAEC): 0.048 nM

CO[C@@H]1[C@H](OC(=O)N[C@@H](COC(=O)[C@H](C)NC(=O)[C@H](Cc2c[nH]c3ccccc23)NC(=O)[C@@H](N)CCSC)C(C)C)CC[C@]2(CO2)[C@H]1[C@@]1(C)O[C@@H]1CC=C(C)C [Example 22, (ID#37)-(2R-{(3R,4S,5S,6R) 5-methoxy-4-[(2R,3R)2-methyl-3-(3-methyl-but-2-enyl)-oxiranyl]-1-oxa-spiro[2.5]oct-6-yloxycarbonyl}amino-3-methyl-butanol)ester]
IC50 [2]: 0.326 nM

CO[C@@H]1[C@H](OC(=O)NCC(=O)N2CCCC2C(=O)N[C@@H](CC(C)C)C(=O)NCC(=O)N[C@@H](CCSC)C(=O)N[C@@H](Cc2c[nH]c3ccccc23)C(=O)N[C@@H](C)C(=O)NCC(N)=O)CC[C@]2(CO2)[C@H]1[C@@]1(C)O[C@@H]1CC=C(C)C (some centres unmarked) [Example 17] (X2-G[ξP]LGMWAG-NH2)
IC50 [1]: 95 nM
IC50 (MetAP2): 16.7 nM

CO[C@@H]1[C@H](OC(=O)N[C@@H](COC(=O)CNC(=O)[C@@H](N)CCSC)C(C)C)CC[C@]2(CO2)[C@H]1[C@@]1(C)O[C@@H]1CC=C(C)C [Example 23, (ID#38)-(2R-{(3R,4S,5S,6R) 5-methoxy-4-[(2R,3R)2-methyl-3-(3-methyl-but-2-enyl)-oxiranyl]-1-oxa-spiro[2.5]oct-6-yloxycarbonyl}amino-3-methyl-butanol)ester]
IC50 [2]: 0.207 nM

CO[C@H]1C([C@@]2(C)O[C@@H]2CC=C(C)C)[C@]2(CC[C@H]1OC(=O)N[C@@H](COC(=O)[C@H](C)NC(=O)[C@H](Cc1c[nH]c3ccccc13)NC(=O)[C@H](CCSC)NC(=O)CNC(=O)[C@H](CC(C)C)NC(=O)[C@@H]1CCCN1C(C)=O)C(C)C)CO2 (stereo partly drawn) [Example 20, (ID#24)-(2R-{(3R,4S,5S,6R) 5-methoxy-4-[(2R,3R)2-methyl-3-(3-methyl-but-2-enyl)-oxiranyl]-1-oxa-spiro[2.5]oct-6-yloxycarbonyl}amino-3-methyl-butanol)ester] (Ac-PLGMWA-X1)
recovery at 0 min, 20 μM ([4]; 0 min, read-out: Percent Recovery (Remaining) 0 min): 110%
recovery at 15 min, 20 μM ([4]; 15 min, read-out: Percent Recovery (Remaining) 15 min): 114%
recovery at 30 min, 20 μM ([4]; 30 min, read-out: Percent Recovery (Remaining) 30 min): 114%
recovery at 60 min, 20 μM ([4]; 60 min, read-out: Percent Recovery (Remaining) 60 min): 120%
recovery at 90 min, 20 μM ([4]; 90 min, read-out: Percent Recovery (Remaining) 90 min): 106%
recovery at 120 min, 20 μM ([4]; 120 min, read-out: Percent Recovery (Remaining) 120 min): 103%
half-life at 20 μM ([4]; first order fit, read-out: T1/2): ≥ 500 min

CO[C@@H]1[C@H](OC(=O)NCC(=O)N[C@@H](CCCNC(=N)N)C(=O)NCC(=O)N[C@@H](CC(=O)O)c2cccnc2)CC[C@]2(CO2)[C@H]1[C@@]1(C)O[C@@H]1CC=C(C)C [Example 16, N-Carbamoyl (ID#40) (3R,4S,5S,6R) 5-methoxy-4-[(2R,3R)2-methyl-3-(3-methyl-but-2-enyl)-oxiranyl]-1-oxa-spiro[2.5]oct-6-yl ester]
IC50 [2]: > 100 nM

COC(=O)[C@@H](NC(=O)O[C@@H]1CC[C@]2(CO2)[C@@H]([C@@]2(C)O[C@@H]2CC=C(C)C)[C@@H]1OC)C(C)C [Example 1, 2-{(3R,4S,5S,6R)-5-Methoxy-4-[(2R,3R)-2-methyl-3-(3-methyl-but-2-enyl)-oxiranyl]-1-oxa-spiro[2.5]oct-6-yloxycarbonylamino}-3-methyl-butyric acid methyl ester]
IC50 [1, 5]: 0.018 nM
IC50 (MetAP2; read-out: MetAP2 Assay IC50): 4.7 nM
IC50 ([2]; Bos taurus, BAEC): 0.017 nM
